Results from publication PMC11191352, “Mandelonitrile lyase MDL2-mediated regulation of seed amygdalin and oil accumulation of Prunus Sibirica” (BMC Plant Biology, 2024).

Test system: T1, PsMDL2
T1 construct: gene MDL2
Test: spectrophotometric mandelonitrile cleavage at […] nm, Lineweaver-Burk
Assay type: biochemical, Prunus sibirica
Conditions: 0.1 M citrate-phosphate buffer pH 5.0, 25 °C; mandelonitrile 0.05-4.0 mM; purified recombinant enzyme

N#CC(O)c1ccccc1 (stereo not shown) [mandelonitrile]
Km: 220 µM
